Test results published in patent US7504400B2, “MTP inhibiting aryl piperydines or piperazines substituted with 5-membered heterocycles” (Janssen Pharmaceutica N.V., priority 2004, dated 2009).

Tested on: Secretion of ApoB
Assay: Quantification of the secretion of ApoB in HepG2 cells
Format: cell-based
Conditions: Homo sapiens, HepG2, 24 h, 24 hours of incubation with test compound, immunoprecipitation of apoB from medium, read-out: pIC50 value (=-log IC50 value), secretion of ApoB (converted)
Outline: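 At 70% confluency, HepG2 cells in MEM with 10% FCS received compound or DMSO carrier (0.4% final) for 24 h. Secreted apoB in cleared medium immunoprecipitated with sheep anti-apoB then rabbit anti-sheep antibody (24 h each, 8° C); pellet radioactivity counted by liquid scintillation; IC50 expressed as pIC50.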

Row | SMILES | IC50
1 | CC(C)n1ncn(-c2ccc(N3CCN(C(C(=O)NCc4cccs4)c4ccccc4)CC3)cc2)c1=O (stereo not shown) [Compound 75] | 316 to 3160 nM
2 | CC(C)n1ncn(-c2ccc(N3CCN(C(C(=O)Nc4ccccc4)c4ccccc4)CC3)cc2)c1=O (stereo not shown) [Compound 8] | 31.6 to 316 nM
3 | CCNC(=O)C(c1ccccc1)(c1ccccc1)N1CCN(c2ccc(-n3cnn(C(C)C)c3=O)cc2)CC1 [Compound 133] | 316 to 3160 nM
4 | CNC(=O)C(c1ccccc1)N1CCN(c2ccc(-n3cnn(C(C)C)c3=O)cc2)CC1 (stereo not shown) [Compound 136] | 316 to 3160 nM
5 | CC(C)n1ncn(-c2ccc(N3CCN(C(C(=O)NCc4ccccc4)c4ccccc4)CC3)cc2)c1=O (stereo not shown) [Compound 165] | 316 to 3160 nM
6 | CC(C)n1ncn(-c2ccc(N3CCN(CCC(C(=O)N(C)C)(c4ccccc4)c4ccccc4)CC3)cc2)c1=O [Compound 147] | 316 to 3160 nM
7 | CC(C)n1ncn(-c2ccc(N3CCN(C(C(=O)NCc4ccc(N)cc4)c4ccccc4)CC3)cc2)c1=O (stereo not shown) [Compound 126] | 316 to 3160 nM
8 | CCC(C)n1nc(C)n(-c2ccc(N3CCC(C(C(=O)Nc4ccc5c(c4)CCC5)c4ccccc4)CC3)cc2)c1=O (stereo not shown) [Compound 207] | < 31.6 nM
9 | CCCNC(=O)C(c1ccccc1)N1CCN(c2ccc(-n3cnn(C(C)C)c3=O)cn2)CC1 (stereo not shown) [Compound 47] | 316 to 3160 nM
10 | CC(C)n1ncn(-c2ccc(N3CCN(C(C(N)=O)c4ccccc4)CC3)cc2)c1=O (stereo not shown) [Compound 145] | 316 to 3160 nM
11 | CCOC(=O)C(c1ccccc1)N1CCN(c2ccc(N3CCN(C(C)C)C3=O)c(C)c2)CC1 (stereo not shown) [Compound 219] | 316 to 3160 nM
12 | CCCC(C(=O)Nc1ccc2c(c1)CCC2)N1CCN(c2ccc(-n3cnn(C(C)C)c3=O)cc2)CC1 (stereo not shown) [Compound 177] | 31.6 to 316 nM
13 | COC(=O)C(c1ccccc1)N1CCN(c2ccc(-n3nc(-c4ccccc4)n(-c4ccccc4)c3=O)cc2)CC1 (stereo not shown) [Compound 29] | 316 to 3160 nM
14 | COC(=O)C(c1ccccc1)(c1ccccc1)N1CCN(c2ccc(-n3cnn(C(C)C)c3=O)cc2)CC1 [Compound 173] | 31.6 to 316 nM
15 | CCOC(=O)C(c1ccccc1)N1CCC(c2ccc(-n3ccn([C@H](C)c4ccc(F)cc4)c3=O)cc2)CC1 (stereo partly shown) [Compound 224] | 31.6 to 316 nM
16 | CC(C)NC(=O)C(c1ccccc1)N1CCN(c2ccc(-n3cnn(C(C)C)c3=O)cc2)CC1 (stereo not shown) [Compound 7] | 31.6 to 316 nM
17 | CNC(=O)C(CN1CCN(c2ccc(-n3cnn(C(C)C)c3=O)cc2)CC1)c1ccccc1 (stereo not shown) [Compound 100] | 31.6 to 316 nM
18 | CCn1ncn(-c2ccc(N3CCC(C(C(=O)Nc4ccccc4)c4ccccc4)CC3)cc2)c1=O (stereo not shown) [Compound 53] | 316 to 3160 nM
19 | CC(C)n1ncn(-c2ccc(N3CCN(C(C(=O)Nc4ccc5c(c4)CCC5)c4ccccc4)CC3)c(F)c2)c1=O (stereo not shown) [Compound 216] | 31.6 to 316 nM

Now from value to compound:

Row | IC50 | SMILES
20 | 316 to 3160 nM | CCOC(=O)C(c1ccccc1)C1CCN(c2ccc(-n3ccn([C@@H](C)c4ccc5ccccc5c4)c3=O)cc2)CC1 (stereo partly shown) [Compound 251]
21 | 316 to 3160 nM | CCOC(=O)C(c1ccccc1)C1CCN(c2ccc(-n3ccn([C@@H](COC)c4ccccc4)c3=O)cc2)CC1 (stereo partly shown) [Compound 260]
22 | 316 to 3160 nM | CCOC(=O)C(c1ccccc1)N1CCC(c2ccc(-n3ccn([C@@H](C)c4ccccc4)c3=O)cc2)CC1 (stereo partly shown) [Compound 228]
23 | 31.6 to 316 nM | COC(=O)c1ccc(CNC(=O)C(c2ccccc2)N2CCC(c3ccc(-n4cnn(C(C)C)c4=O)cc3)CC2)cc1C (stereo not shown) [Compound 288]
24 | 316 to 3160 nM | CCOC(=O)c1csc(NC(=O)C(c2ccccc2)N2CCN(c3ccc(-n4cnn(C(C)C)c4=O)cc3)CC2)n1 (stereo not shown) [Compound 357]
25 | 31.6 to 316 nM | CCOC(=O)[C@H](c1ccccc1)N1CCN(c2ccc(-n3ccn([C@H](C)c4cccc(C(F)(F)F)c4)c3=O)cc2)CC1 (relative stereo) [Compound 269]
26 | 316 to 3160 nM | CCOC(=O)CC1CCN(c2ccc(-n3cnn(C(C)C)c3=O)cc2)CC1 [Compound 385]
27 | 316 to 3160 nM | CCOC(=O)CCNC(=O)CC1CCN(c2ccc(-n3cnn(C(C)c4ccccc4)c3=O)cc2)CC1 (stereo not shown) [Compound 402]
28 | 316 to 3160 nM | CCOC(=O)C(c1ccccc1)C1CCN(c2ccc(-n3ccn([C@@H](C)c4ccc(Cl)cc4)c3=O)cc2)CC1 (stereo partly shown) [Compound 256]
